From patent US9776962B2, “Aromatic compounds with GPR40 agonistic activity” (TAKEDA PHARMACEUTICAL COMPANY LIMITED, priority 2013, dated 2017)

molecular target: T1, human GPR40 (Homo sapiens, UniProt O14842); experiment: Evaluation of human GPR40 agonist activity with increase in intracellular Ca2+ concentration as an index (FLIPR); format: cell-based; settings: test compound 1 μM; CHO(dhfr−) cells stably expressing human GPR40; 100% = 10 μM compound of Example 153, 0% = DMSO
T1 construct: expressed in transfected cells
T1 sequence (O14842 whole entry): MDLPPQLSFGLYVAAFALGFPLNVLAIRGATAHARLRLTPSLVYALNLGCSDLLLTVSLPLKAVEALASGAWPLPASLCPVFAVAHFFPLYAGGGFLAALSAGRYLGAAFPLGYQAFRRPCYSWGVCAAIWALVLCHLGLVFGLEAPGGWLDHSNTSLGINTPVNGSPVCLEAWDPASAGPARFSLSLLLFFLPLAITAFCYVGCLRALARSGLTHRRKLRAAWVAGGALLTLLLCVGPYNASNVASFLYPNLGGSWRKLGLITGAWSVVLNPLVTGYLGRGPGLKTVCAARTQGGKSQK
Method: Plasmid hGPR40/pAKKO-1.11H for mammalian cells expression, wherein cDNA fragment (SEQ ID NO: 1) encoding the full-length human GPR40 was incorporated into an expression vector pAKKO-1.11H (Biochimica et Biophysica Acta vol. 1219 pp. 251-259 (1994)), was transfected into CHO-dhfr(−) cells (ATCC, CRL-9096) by using Lipofectamine 2000 (Invitrogen:11668-019). After transfection, the limiting dilution-culture method was performed to select clone in selection medium (nucleic acid-free α-MEM (Invitrogen:12561-056)) containing 10% dialyzed bovine serum (Invitrogen:26400-044)). The expression level of human GPR40 mRNA was confirmed by TaqMan PCR (Life Technologies), and the intracellular calcium mobilization activity of GPR40 ligand (γ-linolenic acid) was confirmed by FLIPR (Molecular Devices), and a clone of human GPR40 expressing CHO cells was selected.
Evaluation of Human GPR40 Agonist Activity with Increase in Intracellular Ca^2+ Concentration as an Index
CHO(dhfr−) cells that stably expressed human GPR40 were suspended in MEMα (Nikken Bio Medical Laboratory) containing 10% dialyzed bovine serum (JR Scientific), 10 mM HEPES (Life Technologies), 100 U/mL penicillin, 100 μg/mL streptomycin (Life Technologies), and plated on a 384 well black/clear cell culture plate at 10,000 cells/well. After culture overnight in a CO2 incubator at 37° C., the culture supernatant was removed, and loading buffer [Ca^2+ probe attached to Calcium Kit II-iCellux (DOJINDO) was dissolved in assay buffer (20 mM HEPES, 0.1% fatty acid-free BSA (Sigma-Aldrich), 2.5 mM probenecid (DOJINDO)-containing HESS (Life Technologies))] was added at 30 μL/well. After leaving for 1 hr at room temperature under light shielding, assay buffer containing the test compound at a final concentration of 1 μM was added at 10 μL/well in FLIPR Tetra (Molecular Devices), and the fluorescence amount was successively measured. Human GPR40 agonist activity calculated using an increase in the intracellular Ca^2+ concentration as an index, wherein the activity of 10 μM of the compound of Example 153 was 100%, and the activity when DMSO was added instead of the test compound was 0%.

Q: Which activation at 1 µM does the source give for `COc1ccc(C(=O)N(Cc2ccccn2)CC(C)(C)C)c(N2CCC(COc3cc(C(CC(=O)O)C4CC4)ccn3)CC2)c1` (stereo not shown) [Example 181, 3-cyclopropyl-3-(2-((1-(2-((2,2-dimethylpropyl)(pyridin-2-ylmethyl)carbamoyl)-5-methoxyphenyl)piperidin-4-yl)methoxy)pyridin-4-yl)propanoic acid] here?
A: 91%

Q: How did the activation at 1 µM turn out when `COc1cc(N2CCC(COc3cc(C(CC(=O)O)C4CC4)ccn3)CC2)c(C(=O)N(CC(C)(C)C)c2cccc(C)n2)cn1` (stereo not shown) [Example 255, 3-cyclopropyl-3-(2-((1-(5-((2,2-dimethylpropyl)(6-methylpyridin-2-yl)carbamoyl)-2-methoxypyridin-4-yl)piperidin-4-yl)methoxy)pyridin-4-yl)propanoic acid] was run?
A: 103%

Q: `COc1ccc(C(=O)N(CC2(F)CC2)c2ccccc2)c(N2CCC(COc3cc(C(CC(=O)O)C4CC4)ccn3)CC2)c1` (stereo not shown) [Example 189, 3-cyclopropyl-3-(2-((1-(2-(((1-fluorocyclopropyl)methyl)(phenyl)carbamoyl)-5-methoxyphenyl)piperidin-4-yl)methoxy)pyridin-4-yl)propanoic acid] was tested. Which activation at 1 µM did it give?
A: 89%

Q: `COc1ccc(C(=O)N(CC2CC2)c2ccccn2)c(N2CCC(COc3cc(C(CC(=O)O)C4CC4)ccn3)CC2)c1` (single isomer, unassigned) [Example 141, 3-cyclopropyl-3-(2-((1-(2-((cyclopropylmethyl)(pyridin-2-yl)carbamoyl)-5-methoxyphenyl)piperidin-4-yl)methoxy)pyridin-4-yl)propanoic acid] was tested. Which activation at 1 µM did it give?
A: 81%

Q: How did the activation at 1 µM turn out when `COc1ccc(C(=O)N(c2ccccn2)C2CCC2)c(N2CCC(COc3cc(C(CC(=O)O)C4CC4)ccn3)CC2)c1` (stereo not shown) [Example 151, 3-(2-((1-(2-(cyclobutyl(pyridin-2-yl)carbamoyl)-5-methoxyphenyl)piperidin-4-yl)methoxy)pyridin-4-yl)-3-cyclopropylpropanoic acid] was run?
A: 87%

Q: Which activation at 1 µM does the source give for `COc1ccc(C(=O)N(CC(C)C)c2ncccc2C)c(N2CCC(COc3cc(C(CC(=O)O)C4CC4)ccn3)CC2)c1` (stereo not shown) [Example 150, 3-cyclopropyl-3-(2-((1-(5-methoxy-2-((2-methylpropyl)(3-methylpyridin-2-yl)carbamoyl)phenyl)piperidin-4-yl)methoxy)pyridin-4-yl)propanoic acid] here?
A: 84%

Q: With `COc1ccc(C(=O)NC2CCN(CC(F)(F)F)CC2)c(N2CCC(COc3cc(C(CC(=O)O)C4CC4)ccn3)CC2)c1` (stereo not shown) [Example 193, 3-cyclopropyl-3-(2-((1-(5-methoxy-2-((1-(2,2,2-trifluoroethyl)piperidin-4-yl)carbamoyl)phenyl)piperidin-4-yl)methoxy)pyridin-4-yl)propanoic acid] as the molecule, how does the activation at 1 µM read?
A: 39%

Q: For `COc1ccc(C(=O)N(CC(C)(C)F)c2ccccn2)c(N2CCC(COc3cc(C(CC(=O)O)C4CC4)ccn3)CC2)c1` (stereo not shown) [Example 120, 3-cyclopropyl-3-(2-((1-(2-((2-fluoro-2-methylpropyl)(pyridin-2-yl)carbamoyl)-5-methoxyphenyl)piperidin-4-yl)methoxy)pyridin-4-yl)propanoic acid], which activation at 1 µM is on record?
A: 100%

Q: `COc1ccc(C(=O)N(CC(C)C)c2cccc(C#N)c2)c(N2CCC(COc3cc(C(CC(=O)O)C4CC4)ccn3)CC2)c1` (stereo not shown) [Example 132, 3-(2-((1-(2-((3-cyanophenyl)(2-methylpropyl)carbamoyl)-5-methoxyphenyl)piperidin-4-yl)methoxy)pyridin-4-yl)-3-cyclopropylpropanoic acid] was tested. Which activation at 1 µM did it give?
A: 99%

Q: How did the activation at 1 µM turn out when `COc1ccc(C(=O)N2C[C@@H](C)O[C@@H](C)C2)c(N2CCC(COc3cccc(C(CC(=O)O)C4CC4)c3)CC2)c1` (stereo partly drawn) [Example 5, 3-cyclopropyl-3-(3-((1-(2-((cis-2,6-dimethylmorpholin-4-yl)carbonyl)-5-methoxyphenyl)piperidin-4-yl)methoxy)phenyl)propanoic acid] was run?
A: 85%

Q: With `COc1ccc(C(=O)N(CC2CC2)c2nccc(C(F)(F)F)n2)c(N2CCC(COc3cc(C(CC(=O)O)C4CC4)ccn3)CC2)c1` (stereo not shown) [Example 237, 3-cyclopropyl-3-(2-((1-(2-((cyclopropylmethyl) (4-(trifluoromethyl)-pyrimidin-2-yl)carbamoyl)-5-methoxyphenyl)piperidin-4-yl)methoxy)pyridin-4-yl)propanoic acid] as the molecule, how does the activation at 1 µM read?
A: 98%

Q: Which activation at 1 µM does the source give for `Cc1cccc(N(CC(C)(C)C)C(=O)c2ccc(Br)cc2N2CCC(COc3cc(C(CC(=O)O)C4CC4)ccn3)CC2)n1` (stereo not shown) [Example 263, 3-(2-((1-(5-bromo-2-((2,2-dimethylpropyl)(6-methylpyridin-2-yl)carbamoyl)phenyl)piperidin-4-yl)methoxy)pyridin-4-yl)-3-cyclopropylpropanoic acid] here?
A: 94%

Q: `COc1ccc(C(=O)N(c2ccccn2)C2CC(F)(F)C2)c(N2CCC(COc3cc(C(CC(=O)O)C4CC4)ccn3)CC2)c1` (stereo not shown) [Example 165, 3-cyclopropyl-3-(2-((1-(2-((3,3-difluorocyclobutyl)(pyridin-2-yl)carbamoyl)-5-methoxyphenyl)piperidin-4-yl)methoxy)pyridin-4-yl)propanoic acid] was tested. Which activation at 1 µM did it give?
A: 97%

Q: Which “Activity (human GPR40 agonist activity)” value does the source give for `COc1ccc(C(=O)N(c2ccccn2)C2CCN(CC(F)(F)F)CC2)c(N2CCC(COc3cc(C(CC(=O)O)C4CC4)ccn3)CC2)c1` (stereo not shown) [Example 191, 3-cyclopropyl-3-(2-((1-(5-methoxy-2-(pyridin-2-yl(1-(2,2,2-trifluoroethyl)piperidin-4-yl)carbamoyl)phenyl)piperidin-4-yl)methoxy)pyridin-4-yl)propanoic acid] here?
A: 86%

Q: With `COc1ccc(C(=O)N(CC(C)(C)OC(C)C)c2ccccn2)c(N2CCC(COc3cc(C(CC(=O)O)C4CC4)ccn3)CC2)c1` (stereo not shown) [Example 160, 3-cyclopropyl-3-(2-((1-(2-((2-isopropoxy-2-methylpropyl)(pyridin-2-yl)carbamoyl)-5-methoxyphenyl)piperidin-4-yl)methoxy)pyridin-4-yl)propanoic acid] as the molecule, how does the activation at 1 µM read?
A: 97%

Q: Which activation at 1 µM does the source give for `COc1ccc(C(=O)N(CC(C)(C)C)C2CCCN(CC(F)(F)F)C2)c(N2CCC(COc3cc(C(CC(=O)O)C4CC4)ccn3)CC2)c1` (stereo not shown) [Example 233, 3-cyclopropyl-3-(2-((1-(2-((2,2-dimethylpropyl) (1-(2,2,2-trifluoroethyl)piperidin-3-yl)carbamoyl)-5-methoxyphenyl)piperidin-4-yl)methoxy)pyridin-4-yl)propanoic acid] here?
A: 85%

Q: With `CCc1ccc(C(=O)N(CC(C)(C)C)c2ccccn2)c(N2CCC(COc3cccc(C(CC(=O)O)C4CC4)c3)CC2)c1` (stereo not shown) [Example 56, 3-cyclopropyl-3-(3-((1-(2-((2,2-dimethylpropyl)(pyridin-2-yl)carbamoyl)-5-ethylphenyl)piperidin-4-yl)methoxy)phenyl)propanoic acid] as the molecule, how does the activation at 1 µM read?
A: 83%

Q: With `COc1ccc(C(=O)N(CC2CC2)c2cccc(C)n2)c(N2CCC(COc3cc(C(CC(=O)O)C4CC4)ccn3)CC2)c1` (stereo not shown) [Example 124, 3-cyclopropyl-3-(2-((1-(2-((cyclopropylmethyl)(6-methylpyridin-2-yl)carbamoyl)-5-methoxyphenyl)piperidin-4-yl)methoxy)pyridin-4-yl)propanoic acid] as the molecule, how does the activation at 1 µM read?
A: 96%

Q: With `COc1ccc(C(=O)N(CC(F)(F)F)c2ccnc(C)n2)c(N2CCC(COc3cc(C(CC(=O)O)C4CC4)ccn3)CC2)c1` (stereo not shown) [Example 239, 3-cyclopropyl-3-(2-((1-(5-methoxy-2-((2-methyl-pyrimidin-4-yl) (2,2,2-trifluoroethyl)carbamoyl)-phenyl)piperidin-4-yl)methoxy)pyridin-4-yl)propanoic acid] as the molecule, how does the activation at 1 µM read?
A: 100%

Q: With `COc1cc(N2CCC(COc3cc(C(CC(=O)O)C4CC4)ccn3)CC2)c(C(=O)N(CC(C)(C)C)c2cc(C)ncn2)cn1` (stereo not shown) [Example 257, 3-cyclopropyl-3-(2-((1-(5-((2,2-dimethylpropyl)(6-methylpyrimidin-4-yl)carbamoyl)-2-methoxypyridin-4-yl)piperidin-4-yl)methoxy)pyridin-4-yl)propanoic acid] as the molecule, how does the activation at 1 µM read?
A: 98%

Q: `COc1ccc(C(=O)N(CC(C)(C)OC)c2cc(C)ccn2)c(N2CCC(COc3cc(C(CC(=O)O)C4CC4)ccn3)CC2)c1` (stereo not shown) [Example 164, 3-cyclopropyl-3-(2-((1-(5-methoxy-2-((2-methoxy-2-methylpropyl)(4-methylpyridin-2-yl)carbamoyl)phenyl)piperidin-4-yl)methoxy)pyridin-4-yl)propanoic acid] was tested. Which activation at 1 µM did it give?
A: 88%

Q: How did the activation at 1 µM turn out when `COc1ccc(C(=O)N(CC(F)F)c2cc(C)ccn2)c(N2CCC(COc3cc(C(CC(=O)O)C4CC4)ccn3)CC2)c1` (stereo not shown) [Example 157, 3-cyclopropyl-3-(2-((1-(2-((2,2-difluoroethyl)(4-methylpyridin-2-yl)carbamoyl)-5-methoxyphenyl)piperidin-4-yl)methoxy)pyridin-4-yl)propanoic acid] was run?
A: 96%
